Assay results reported in patent US9018248B2, “Fatty acid derivatives of catechins and methods of their use” (Genesis Group Inc., priority 2010, dated 2015).

Tests used:
COX-2 = COX-2 expression in colon of AOM-treated mice (western blot); type: in vivo, ICR mice; conditions: western blot of colon mucosa
Method: (§1) Male ICR mice at 5 weeks of age were purchased from the BioLASCO Experimental Animal Center (Taiwan Co., Ltd). After 1 week of acclimation, animals were randomly distributed into control and experimental groups. All animals were housed in a controlled atmosphere (25±1° C. at 50% relative humidity) and with a 12-hour light/12-hour dark cycle. Animals had free access to food and water at all times. Food cups were replenished with fresh diet every day. The experimental protocol is illustrated in FIG. 6. Mice were divided into 6 groups. One group (negative control) was fed standard diet; one group (positive control) was fed standard diet but injected with azozymethane (AOM) twice a week for 2 weeks; the remaining 4 groups had AOM injection and dietary supplementation of different levels of EGCG esters (1a and EGCG-DHA ester mixture containing predominantly 1c and its homologues). 9(b): Identification of ACF The formalin-fixed colonic tissues were cut into proximal (1-2 cm from the cecum), middle (3-4 cm) and distal (1-2 cm from anus) segments and stained in 0.2% methylene blue solution for 10 min. Methylene blue-stained ACF in each focus were counted under a microscope (×40). The ACF location (distance from anus) and size (number of aberrant crypts) were recorded. […] The densities of the bands were quantitated with a computer densitometer (AlphaImager™ 2200 System). […]

[1] = test system: colon ACF and colon tumors in AOM treated mice; assay: AOM-treated mice, colon aberrant crypt foci and tumors; type: in vivo, ICR mice
Method: as §1

iNOS = iNOS expression in colon of AOM-treated mice (western blot); type: in vivo, ICR mice; conditions: western blot of colon mucosa
Method: as §1

HCV NS3/4A protease = HCV NS3/4A protease (Hepatitis C virus genotype 1a, UniProt P27958); assay: Inhibition against HCV protease; type: biochemical
Method: An aliquot (2 μl) of test compounds dissolved in DMSO was added to each well of a 384-well black Assay plate, followed by addition of 8 μl of HCV NS3/4A protease solution (0.5 μg/ml). The reaction was initiated by adding 10 μl of freshly diluted substrate (100× dilution of a DMSO stocking solution). The mixture was incubated at room temperature for 30 min, and the fluorescence intensity was measured at 485 nm for excitation and 535 nm for emission by a TECAN GENios plate reader. […] All fluorescence values were corrected with a substrate blank. Samples were assayed at different concentrations to plot a concentration VS. inhibition percentage curve, and IC50 values were obtained from the curve for each sample. A known HCV protease inhibitor, embelin, was used as a reference. Discussion

[2] = TBARS formation in cooked pork model system; conditions: 80 μmol/kg meat, stored at 4° C.
Method: Fresh ground pork (40 g) was mixed with deionized water (10 g) in a Mason jar. Samples and reference antioxidant compound (BHA) dissolved in ethanol were added to meat at a level of 80 μmol/kg. A control without any antioxidant was also prepared. The content was thoroughly mixed and cooked at 80° C. in a thermostated water bath for 40 min with intermittent stirring. The cooked meat was cooled to room temperature and homogenized with a Polytron PT 3000 (Brinkmann Instruments, Rexdale, ON) homogenizer. The homogenate was then transferred into plastic bags and stored at 4° C. for 14 days. […].
TBARS values were determined as described by Shahidi and Hong (Shahidi, F. and Hong, C. Evaluation of malonaldehyde as a marker of oxidative rancidity in meat products. J. Food Biochem. 15, 97-105, 1991).
A series of TMP (1,1,3,3-tetramethoxypropane) standard solutions at difference concentrations was mixed with thiobarbituric acid (TBA) in screw-capped tubes and heated in a boiling water bath for 45 min. After cooling on ice, the absorbance was recorded at 532 nm and a standard curve was constructed (absorbance versus concentration). For TBARS in the cooked meat model system, 2 g of meat were mixed with 5 ml of trichloroacetic acid (TCA, 10% w/v) in a centrifuge tube, followed by addition of 5 ml of TBA reagent. The mixture was centrifuged at 3000×g for 10 min and the supernatant was filtered. The filtrate was heated in a boiling water bath for 45 min and absorbance was measured at 532 nm after cooling to room temperature. TBARS values in meat samples were obtained using the standard curve as μmol malonaldehyde equivalents/kg of meat. Antioxidant activity was calculated as percentage inhibition of TBARS formation by test compounds.

Chain of HCV NS3/4A protease (P27958 1027-1657): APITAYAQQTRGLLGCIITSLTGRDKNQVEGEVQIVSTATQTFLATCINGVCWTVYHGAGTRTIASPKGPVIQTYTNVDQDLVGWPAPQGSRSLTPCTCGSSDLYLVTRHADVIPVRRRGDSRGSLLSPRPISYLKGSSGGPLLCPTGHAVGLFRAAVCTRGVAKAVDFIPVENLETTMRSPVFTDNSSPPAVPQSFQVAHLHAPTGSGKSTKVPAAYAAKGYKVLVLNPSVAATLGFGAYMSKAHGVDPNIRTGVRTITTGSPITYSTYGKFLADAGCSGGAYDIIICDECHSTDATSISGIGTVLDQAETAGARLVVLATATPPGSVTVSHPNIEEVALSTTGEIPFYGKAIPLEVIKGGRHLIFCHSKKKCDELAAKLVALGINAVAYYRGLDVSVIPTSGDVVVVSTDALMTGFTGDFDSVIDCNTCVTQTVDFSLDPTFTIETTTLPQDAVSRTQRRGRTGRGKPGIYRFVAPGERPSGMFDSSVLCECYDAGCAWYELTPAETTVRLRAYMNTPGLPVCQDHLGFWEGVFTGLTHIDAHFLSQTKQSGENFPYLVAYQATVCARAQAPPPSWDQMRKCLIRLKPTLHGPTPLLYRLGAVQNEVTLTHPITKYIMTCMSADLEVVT
Chain of HCV NS3/4A protease (P27958 1658-1711): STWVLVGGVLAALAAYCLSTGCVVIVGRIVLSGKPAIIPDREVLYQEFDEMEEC

| IC50 (HCV NS3/4A protease; HCV NS3/4A protease 0.5 μg/ml, 30 min, room temperature) [nM] | HCV protease inhibitory activity relative to embelin (HCV NS3/4A protease; fold stronger than embelin) [fold] | Structure (SMILES) | COX-2 expression in mice colon (COX-2) | Colon tumors ([1]; AOM treated mice, FIG. 7) | Tumorogenesis in terms of number and size of ACF ([1]; AOM-injected male ICR mice, dietary supplementation) | iNOS expression in mice colon (iNOS) | Inhibition of TBARS formation in cooked pork [2] |
| --- | --- | --- | --- | --- | --- | --- | --- |
| 980 | 10 | CCCC(=O)Oc1cc(OC(=O)CCC)c2c(c1)OC(c1cc(OC(=O)CCC)c(OC(=O)CCC)c(OC(=O)CCC)c1)C(OC(=O)c1cc(OC(=O)CCC)c(OC(=O)CCC)c(OC(=O)CCC)c1)C2 (stereo not shown) [Compound 1g, EGCG-octabutyrate] | dose-dependent inhibitory effect | inhibited to a lesser level | significantly suppressed tumorogenesis | dose-dependent inhibitory effect |  |
|  |  | COc1ccc(O)c(C(C)(C)C)c1 [BHA, reference compound] |  |  |  |  | 83.3 ± 2.34^ab % |
